Laboratory results: US20240252657A1, “HEMTAC SMALL-MOLECULE DEGRADATION AGENT AND APPLICATION THEREOF” (SHANDONG UNIVERSITY, priority 2022, published 2024)

Legend:
CDK6 = biological target: T1, CDK6 (Mus musculus, UniProt Q64261); experiment: Western blot, CDK6 degradation in B16F10 cells; format: cell-based; conditions: read-out: DC50 (drug concentration leading to 50% protein degradation) of CDK6
T1 construct: degradation of CDK4 and CDK6 in B16F10 cells; endogenous in cells; host or cells: B16F10
Procedure: (§1) After B16F10 cells were treated with the compound at different concentrations and for different periods of time, the levels of CDK4 and CDK6 proteins in the cells were measured by Western blot. Firstly, intracellular proteins were extracted and quantified. The cells were lysed with RIPA cell lysate (with a protease inhibitor), and proteins were collected, which were quantified by a BCA protein quantitative determination kit and quantified to the same concentration. Protein denaturation: The proteins were placed in a water bath at 100° C. for 8 minutes to denature the proteins. Loading and gel electrophoresis: The loading amount per cell was generally 20 μL. […] Membrane transfer: The membrane transfer was carried out using a wet transfer instrument, at a constant current of 250 mA for 90 minutes. The PVDF membrane should be soaked with methanol beforehand. Blocking: The PVDF membrane was placed in BSA blocking buffer for 1 h (with slow shaking in a shaker). Incubation with primary antibody: The primary antibody was diluted according to the instructions. The primary antibody was added, followed by incubation overnight at 4° C. Membrane washing: The membrane was washed with TBST washing buffer for 3 times, each time for 10 minutes. Incubation with secondary antibody: The second antibody was added, followed by incubation in a shaker at room temperature for 1 h. […]

CDK4/6 = experiment: Western blot, CDK4/6 protein level in B16F10 cells; format: cell-based, mouse
Procedure: as §1

mouse B16F10 melanoma = experiment: Anti-tumor experiment in mice in vivo, B16F10 melanoma xenograft model
Procedure: B16F10 cells (10^6 cells/mouse) were injected subcutaneously into the forelimb of C57BL/6 mice to establish an xenograft model of mouse B16F10 melanoma. When the tumor volume reached 100-200 mm^3, the mice were randomly divided into four groups (n=6). The compound was injected intraperitoneally every day for two weeks, and the body weights and tumor volumes of the mice were measured every two days. The tumor length and width were measured along two orthogonal axes with a vernier caliper, and the tumor volume in the mouse was calculated based on an equation V (mm^3)=(length×width^2)/2.

CDK4 = biological target: T2, CDK4 (Mus musculus, UniProt P30285); experiment: Western blot, CDK4 degradation in B16F10 cells; format: cell-based; conditions: read-out: DC50 (drug concentration leading to 50% protein degradation) of CDK4
T2 construct: degradation of CDK4 and CDK6 in B16F10 cells; endogenous in cells; host or cells: B16F10
T2 sequence (P30285 1-303): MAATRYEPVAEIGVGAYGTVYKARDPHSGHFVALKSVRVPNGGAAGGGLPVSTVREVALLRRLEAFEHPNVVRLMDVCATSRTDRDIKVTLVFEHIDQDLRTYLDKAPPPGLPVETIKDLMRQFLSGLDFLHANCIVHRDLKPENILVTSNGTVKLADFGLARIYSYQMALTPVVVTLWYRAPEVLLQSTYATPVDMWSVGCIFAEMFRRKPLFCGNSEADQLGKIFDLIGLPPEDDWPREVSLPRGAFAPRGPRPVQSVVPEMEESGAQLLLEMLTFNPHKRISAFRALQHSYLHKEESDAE
Procedure: as §1

T1 sequence (Q64261 whole entry): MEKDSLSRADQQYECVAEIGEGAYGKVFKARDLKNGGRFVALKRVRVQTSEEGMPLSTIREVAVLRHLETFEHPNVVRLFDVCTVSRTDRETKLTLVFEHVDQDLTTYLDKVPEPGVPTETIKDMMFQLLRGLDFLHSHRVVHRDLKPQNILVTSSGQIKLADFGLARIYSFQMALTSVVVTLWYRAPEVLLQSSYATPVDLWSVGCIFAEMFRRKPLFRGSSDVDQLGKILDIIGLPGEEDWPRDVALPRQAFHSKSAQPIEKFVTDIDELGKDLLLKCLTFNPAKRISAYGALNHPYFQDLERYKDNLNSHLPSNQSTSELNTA

## COc1c(C)cnc(Cn2cc(C#CCCn3cc(CNC(=O)CN4CCN(c5ccc(Nc6ncc7c(C)c(C(C)=O)c(=O)n(C8CCCC8)c7n6)nc5)CC4)nn3)c3c(Cl)nc(N)nc32)c1C [Compound 26]
CDK6
  DC50: ~19 nM
CDK4/6; B16F10 cells, 0.5 μM
  time within which degradation of CDK4/6 was induced: ≤ 12 h
CDK4/6; B16F10 melanoma cells, 24 h
  degradation activity (rank among the HEMTACs): highest degradation activity
Mouse B16F10 melanoma; 20 mg/kg, intraperitoneally every day for two weeks
  anti-tumor effect compared with BIIB021 (20 mg/kg): better than that of HSP90 inhibitor BIIB021
Mouse B16F10 melanoma; 40 mg/kg, intraperitoneally every day for two weeks
  growth of melanoma: significantly inhibit the growth of melanoma
Mouse B16F10 melanoma; all treatment groups
  other signs of toxicity: no other signs of toxicity
Mouse B16F10 melanoma; intraperitoneally every day for two weeks
  body weight of mice: slight weight loss
Mouse B16F10 melanoma; mouse B16F10 melanoma model, FIG. 4 legend, no dose given
  anti-melanoma effect in vivo: significant anti-melanoma effect
CDK4
  DC50: ~26 nM
